Data as given in publication PMC7028757 (2020).

Tests used:
[1] = tested on: Oxytricha Nova G-quadruplex d(GGGGTTTTGGGG) (DNA, G4) GGGGTTTTGGGG; assay: fluorescence titration; settings: 100 mM NaCl; 10 mM sodium cacodylate, 0.5 mM EDTA, pH 7.0, 20°C
[2] = tested on: d(AGGGGTTTTCCCCT) hairpin duplex (DNA, hairpin) AGGGGTTTTCCCCT; assay: FID; settings: 100 mM NaCl; 10 mM sodium cacodylate, 0.5 mM EDTA, pH 7.0, 20°C; thiazole orange 0.50 μM displaced
[3] = tested on: Oxytricha Nova G-quadruplex d(GGGGTTTTGGGG) (DNA, G4) GGGGTTTTGGGG; assay: UV melting, 260 nm; settings: 100 mM NaCl; 10 mM sodium cacodylate, 0.5 mM EDTA, pH 7.0; 5 μM quadruplex, ligand 1:1
[4] = tested on: Oxytricha Nova G-quadruplex d(GGGGTTTTGGGG) (DNA, G4) GGGGTTTTGGGG; assay: FID; settings: 100 mM NaCl; 10 mM sodium cacodylate, 0.5 mM EDTA, pH 7.0, 20°C; thiazole orange 0.50 μM displaced

In the case of `CN1C(=Cc2cc[n+](C)c3ccccc23)Sc2ccccc21`, the binding [1] is reported as “yes”.
With `NC[C@@H]1O[C@H](O[C@H]2[C@@H](O)[C@H](O[C@@H]3[C@@H](O)[C@H](N)C[C@H](N)[C@H]3O[C@H]3O[C@H](CN)[C@@H](O)[C@H](O)[C@H]3N)O[C@@H]2CO)[C@H](N)[C@@H](O)[C@@H]1O` the DC50 [2] was 53.44 µM, the ΔTm [3] was 0.0 °C and the DC50 [4] was 76.02 µM.
`CN(C)CCN1C(=O)c2ccc3c4c(ccc(c24)C1=O)C(=O)N(CCCNC(=O)NCCSC[C@H]1O[C@@H](O[C@@H]2[C@@H](O)[C@H](N)C[C@H](N)[C@H]2O[C@H]2O[C@H](CN)[C@@H](O)[C@H](O)[C@H]2N)[C@H](O)[C@@H]1O[C@H]1O[C@@H](CN)[C@@H](O)[C@H](O)[C@H]1N)C3=O` was tested, and the DC50 [2] was 0.83 µM, the ΔTm [3] was 0.6 °C and the DC50 [4] was 7.89 µM.
`NC[C@@H]1O[C@H](O[C@H]2[C@@H](O)[C@H](O[C@@H]3[C@@H](O)[C@H](N)C[C@H](N)[C@H]3O[C@H]3O[C@H](CN)[C@@H](O)[C@H](O)[C@H]3N)O[C@@H]2CSCCNC(=O)CCCc2ccc3ccc4cccc5ccc2c3c45)[C@H](N)[C@@H](O)[C@@H]1O` gave a DC50 [2] of 2.61 µM, a ΔTm [3] of 1.9 °C and a DC50 [4] of 4.73 µM.
`NC[C@@H]1O[C@H](O[C@H]2[C@@H](O)[C@H](O[C@@H]3[C@@H](O)[C@H](N)C[C@H](N)[C@H]3O[C@H]3O[C@H](CN)[C@@H](O)[C@H](O)[C@H]3N)O[C@@H]2CSCCNC(=O)NCCCNC(=O)c2ccc3c(c2)C(=O)c2ccccc2C3=O)[C@H](N)[C@@H](O)[C@@H]1O` was tested, and the DC50 [2] was 0.75 µM, the ΔTm [3] was 0.5 °C and the DC50 [4] was 0.30 µM.
